From patent US11542273B2, “Amide compound having bet proteolysis-inducing action and medicinal application thereof” (MITSUBISHI TANABE PHARMA CORPORATION, priority 2018, dated 2023)
Read-outs that look alike come from different tables or passages of the source.

Legend:
[1] = target: BRD4 bromodomain 1 (Homo sapiens (Human), UniProt O60885); experiment: Inhibitory action on binding of BRD4 protein and ligand, Test Method 1 (TR-FRET, BRD4 bromodomain 1 TR-FRET Assay Kit); settings: Test Method 1, BRD4 bromodomain 1 and ligand
Procedure: The inhibitory action of the compound of the present invention on the binding of BRD4 protein and a ligand thereof was evaluated by the time-resolved fluorescence resonance energy transfer (TR-FRET) method using BRD4 bromodomain 1 TR-FRET Assay Kit (Cayman). In this experiment, (+)-JQ1 known to have an inhibitory activity on the binding of BRD4 protein and a ligand therefor was used as a positive control drug. A test compound dissolved in DMSO was diluted with TR-FRET Assay Buffer, added to a 384 well black plate, BRD4 bromodomain 1 Europium Chelete was further added and the cells were incubated at room temperature for 15 min. Thereafter, BRD4 bromodomain 1 Ligand/APC Acceptor Mixture was added and the cells were incubated at room temperature for 1 hr. The binding amount of the BRD4 protein and ligand was measured as fluorescence intensity (excitation: 340 nm/emission: 620 nm and excitation: 340 nm/emission: 670 nm).
It was calculated from the straight line connecting the degradation rate at two points enclosing the 50% fluorescence intensity and the compound concentration.

[2] = target: BRD4-1 (GST) (Homo sapiens (Human), UniProt O60885); experiment: Inhibitory action on binding of BRD4 protein and acetylated histone H4, Test Method 2 (TR-FRET); settings: Test Method 2, BRD4-1 (GST) and acetylated histone H4, TR-FRET
Procedure: The inhibitory action of the compound of the present invention on the binding of BRD4 protein and a ligand thereof (acetylated histone H4) was evaluated by the time-resolved fluorescence resonance energy transfer (TR-FRET) method using EPIgeneous™ Binding Domain Kit A (Cisbio), BRD4-1 (GST) (Reaction Biology Corp) and [Lys(Ac)5/8/12/16]-Histone H4(1-21)-GGK (Biotin) (Eurogentec). In this experiment, (+)-JQ1 known to have an inhibitory activity on the binding of BRD4 protein and acetylated histone H4 therefor was used as a positive control drug. A test compound dissolved DMSO was diluted with attached Diluent Buffer, added to a 384 well white plate, and BRD4-1 (GST) and [Lys(Ac)5/8/12/16]-Histone H4(1-21)-GGK (Biotin) were further added. Thereafter, Streptavidin-d2 conjugate and Anti-GST-Eu^3+ Cryptate Conjugate were added and the cells were incubated at room temperature for 3 hr. The binding amount of the BRD4 protein and acetylated histone H4 was measured as the fluorescence intensity (excitation: 314 nm/emission: 620 nm and excitation: 314 nm/emission: 665 nm). […] It was calculated from the straight line connecting the degradation rate at two points enclosing the 50% fluorescence intensity and the compound concentration.

[3] = test system: human prostate cancer LNCaP cells; experiment: Cytotoxic action on cancer cells (WST-8, 96 hr); format: cell-based; settings: read-out: LNCaP cytotoxic activity: IC50
In short: (§1)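 IC50 from linear interpolation of the two concentrations flanking 50% survival; viability by WST-8 relative to untreated wells. Cells grown in 10% FBS/RPMI1640, 37° C, 5% CO2, compound added after overnight attachment.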

[4] = target: BRD4 protein (Homo sapiens (Human), UniProt O60885); experiment: BRD4 protein degradation inducing action in cancer cells (immunofluorescence, Operetta); format: cell-based; settings: LNCaP cells, 6 hr treatment, fluorescence intensity
In short: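 DC50 = compound concentration reducing BRD4 immunofluorescence to 50% of untreated cells, interpolated between the two flanking concentrations. Treatment: LNCaP cells, 6 hr, 10% FBS/RPMI1640, 37° C. Cells were then fixed, permeabilized, stained with anti-BRD4 and Alexa Fluor 488 or 546 secondaries, and imaged.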

[5] = test system: human acute myeloid leukemia MV-4-11 cell transplanted mouse; experiment: Antitumor effect in human acute myeloid leukemia MV-4-11 cell transplanted mouse; format: in vivo; settings: MV4-11, iv, 360 h, read-out: tumor growth inhibitory rate
Procedure: The in vivo antitumor effect of the compound of the present invention was studied using human acute myeloid leukemia MV-4-11 cell transplanted mouse. MV-4-11 cells were subcutaneously transplanted into the inguinal region of male, 6-week-old BALB/c nude mouse (5×10^6 cells/mouse). The compound of the present invention was administered into the tail vein on days 1, 5, 9, 13 from the time point when the assumed tumor volume determined from 1/2ab^2 (a is major axis and b is minor axis of tumor) reached about 100 mm^3 (day 1). The control group was administered with a solvent, 10% hydroxypropyl-β-cyclodextrin solution. On day 15, the tumor was isolated, the weight was measured, and the tumor growth inhibitory rate IR (%) was calculated by the following formula. tumor growth inhibitory rate IR (%)=(1−tumor weight of administration group/tumor weight of nonadministration control group)×100

[6] = test system: human triple negative breast cancer MDA-MB-231 cell; experiment: Cytotoxic action on cancer cells (WST-8, 96 hr); format: cell-based; settings: MDA-MB-231 cells, 96 hr culture
In short: as §1

[7] = test system: human large cell lung cancer NCI-H460 cell; experiment: Cytotoxic action on cancer cells (WST-8, 96 hr); format: cell-based; settings: 96 hr culture
In short: as §1

[8] = test system: human diffuse large B-cell lymphoma SU-DHL-6 cell; experiment: Cytotoxic action on cancer cells (WST-8, 96 hr); format: cell-based; settings: SU-DHL-6 cells, 96 hr culture
In short: as §1

[9] = test system: human non-small cell lung cancer NCI-H1975 cell; experiment: Cytotoxic action on cancer cells (WST-8, 96 hr); format: cell-based; settings: 96 hr culture
In short: as §1

[10] = test system: human colorectal cancer HCT116 cell; experiment: Cytotoxic action on cancer cells (WST-8, 96 hr); format: cell-based; settings: HCT-116, 96 hr culture
In short: as §1

[11] = test system: human acute myeloid leukemia MV-4-11 cell; experiment: Cytotoxic action on cancer cells (WST-8, 96 hr); format: cell-based; settings: MV4-11, MV-4-11 cells, 96 hr culture
In short: as §1

[12] = test system: human uterine sarcoma MES-SA cell; experiment: Cytotoxic action on cancer cells (WST-8, 96 hr); format: cell-based; settings: 96 hr culture
In short: as §1

[13] = test system: human glioma U-87 MG cell; experiment: Cytotoxic action on cancer cells (WST-8, 96 hr); format: cell-based; settings: U-87 MG cells, 96 hr culture
In short: as §1

[14] = test system: human pancreatic cancer AsPC-1 cell; experiment: Cytotoxic action on cancer cells (WST-8, 96 hr); format: cell-based; settings: ASPC1, AsPC-1 cells, 96 hr culture
In short: as §1

[15] = test system: human small cell lung cancer NCI-H82 cell; experiment: Cytotoxic action on cancer cells (WST-8, 96 hr); format: cell-based; settings: 96 hr culture
In short: as §1

[16] = test system: human breast cancer ZR-75-1 cell; experiment: Cytotoxic action on cancer cells (WST-8, 96 hr); format: cell-based; settings: ZR-75-1 cells, 96 hr culture
In short: as §1

[17] = test system: human ovarian cancer A2780 cell; experiment: Cytotoxic action on cancer cells (WST-8, 96 hr); format: cell-based; settings: 96 hr culture
In short: as §1

[18] = test system: human T-cell leukemia Jurkat cells; experiment: Cytotoxic action on cancer cells (WST-8, 96 hr); format: cell-based; settings: 96 hr culture
In short: as §1

[19] = test system: human gastric cancer SNU-16 cell; experiment: Cytotoxic action on cancer cells (WST-8, 96 hr); format: cell-based; settings: SNU-16 cells, 96 hr culture
In short: as §1

[20] = test system: human liver cancer Hep G2 cell; experiment: Cytotoxic action on cancer cells (WST-8, 96 hr); format: cell-based; settings: HepG2, 96 hr culture
In short: as §1

[21] = test system: human Burkitt lymphoma Raji cell; experiment: Cytotoxic action on cancer cells (WST-8, 96 hr); format: cell-based; settings: 96 hr culture
In short: as §1

[22] = test system: human castration-resistant prostate cancer PC-3 cell; experiment: Cytotoxic action on cancer cells (WST-8, 96 hr); format: cell-based; settings: PC-3 cells (printed P0-3 in table), 96 hr culture
In short: as §1

[23] = test system: human multiple myeloma MM.1S cell; experiment: Cytotoxic action on cancer cells (WST-8, 96 hr); format: cell-based; settings: MM1.S, MM.1S cells, 96 hr culture
In short: as §1

[24] = test system: human chronic myeloid leukemia K562 cell; experiment: Cytotoxic action on cancer cells (WST-8, 96 hr); format: cell-based; settings: 96 hr culture
In short: as §1

[25] = test system: human bladder cancer 5637 cell; experiment: Cytotoxic action on cancer cells (WST-8, 96 hr); format: cell-based; settings: 5637 cells, 96 hr culture
In short: as §1

(+)-JQ1 [reference compound]
IC50 [1]: 7400 nM
IC50 [2]: 550 nM
IC50 ([3]; LNCaP cells, 96 hr culture, WST-8): 19000 nM

COC(=O)C[C@@H]1N=C(c2ccc(N3CC[C@H](C(=O)Nc4ccc5oc(C(=O)N[C@H](C(=O)N6C[C@H](O)C[C@H]6C(=O)N[C@@H](C)c6ccc(-c7scnc7C)cc6)C(C)(C)C)cc5c4)C3)cc2)c2c(sc(C)c2C)-n2c(C)nnc21 [Example 138, methyl [(6S)-4-{4-[(3S)-3-{[2-({(2S)-1-[(2S,4R)-4-hydroxy-2-({(1S)-1-[4-(4-methyl-1,3-thiazol-5-yl)phenyl]ethyl}carbamoyl)pyrrolidin-1-yl]-3,3-dimethyl-1-oxobutan-2-yl}carbamoyl)-1-benzofuran-5-yl]carbamoyl}pyrrolidin-1-yl]phenyl}-2,3,9-trimethyl-6H-thieno[3,2-f][1,2,4]triazolo[4,3-a][1,4]diazepin-6-yl]acetate]
DC50 [4]: 0.62 nM
IC50 ([3]; Homo sapiens, LNCaP, 96 h): 0.24 nM
inhibition in vivo at 1 mg/kg [5]: 97.8%
inhibition in vivo at 3 mg/kg [5]: 98.6%

COC(=O)C[C@@H]1N=C(c2ccc(-c3ccc(C(=O)N[C@H](C(=O)N4C[C@H](O)C[C@H]4C(=O)N[C@@H](C)c4ccc(-c5scnc5C)cc4)C(C)(C)C)cc3F)cc2)c2c(sc(C)c2C)-n2c(C)nnc21 [Example 62, methyl {(6S)-4-[2′-fluoro-4′-({(2S)-1-[(2S,4R)-4-hydroxy-2-({(1S)-1-[4-(4-methyl-1,3-thiazol-5-yl)phenyl]ethyl}carbamoyl)pyrrolidin-1-yl]-3,3-dimethyl-1-oxobutan-2-yl}carbamoyl) [1,1′-biphenyl]-4-yl]-2,3,9-trimethyl-6H-thieno[3,2-f][1,2,4]triazolo[4,3-a][1,4]diazepin-6-yl}acetate]
DC50 [4]: 0.24 nM
IC50 ([3]; Homo sapiens, LNCaP, 96 h): 0.26 nM
inhibition in vivo at 0.3 mg/kg [5]: 95.6%
inhibition in vivo at 3 mg/kg [5]: 97.4%

COC(=O)C[C@@H]1N=C(c2ccc(-c3ccc(OCCOCC(=O)N[C@H](C(=O)N4C[C@H](O)C[C@H]4C(=O)N[C@@H](C)c4ccc(-c5scnc5C)cc4)C(C)(C)C)c(C#N)c3)cc2)c2c(sc(C)c2C)-n2c(C)nnc21 [Example 8, methyl [(6S)-4-(3′-cyano-4′-{2-[2-({(2S)-1-[(2S,4R)-4-hydroxy-2-({(1S)-1-[4-(4-methyl-1,3-thiazol-5-yl)phenyl]ethyl}carbamoyl)pyrrolidin-1-yl]-3,3-dimethyl-1-oxobutan-2-yl}amino)-2-oxoethoxy]ethoxy}[1,1′-biphenyl]-4-yl)-2,3,9-trimethyl-6H-thieno[3,2-f][1,2,4]triazolo[4,3-a][1,4]diazepin-6-yl]acetate]
IC50 [1]: 82 nM
DC50 [4]: 0.41 nM
IC50 [6]: 14 nM
IC50 [7]: 75 nM
IC50 [8]: 2.1 nM
IC50 ([3]; Homo sapiens, LNCaP, 96 h): 0.68 nM
IC50 [9]: 20 nM
IC50 [10]: 37 nM
IC50 [11]: 0.15 nM
IC50 [12]: 21 nM
IC50 [13]: 25 nM
IC50 [14]: 81 nM
IC50 [15]: 35 nM
IC50 [16]: 4.2 nM
IC50 [17]: 0.36 nM
IC50 [18]: 4.3 nM
IC50 [19]: 17 nM
IC50 [20]: 48 nM
IC50 [21]: 5.7 nM
IC50 [22]: 2.5 nM
IC50 [23]: 0.24 nM
IC50 [24]: 5.2 nM
IC50 [25]: 2.1 nM
